# Measured values from publication PMC3179866, “Antiproliferative Activity of Xanthones Isolated from Artocarpus obtusus” (Journal of Biomedicine and Biotechnology, 2011).
# Where two headings read alike, the source gives them in different places.
# Legend:
# [1] = test system: MCF7 (human estrogen receptor (ER+) positive breast cancer) cells; assay: MTT cytotoxicity assay, MCF7; format: cell-based; conditions: 72 hours continuous exposure
# Description: (§1) The cancerous and noncancerous cell lines (suspension and anchorage-dependent cells) were obtained from the American Type Culture Collection (ATCC) and the RIKEN Cell Bank (RCB). The cancerous cell lines used were HL-60 (human acute promyelocytic leukemia) (RCB), K562 (human chronic myeloid leukemia) (ATCC), MCF7 (human estrogen receptor (ER+) positive breast cancer) (ATCC), HeLa (human cervical cancer) (ATCC), HepG2 (human hepatocarcinoma) (ATCC), HT29 (human colon cancer) (RCI), and MDA-MB 231 (human estrogen receptor (ER−) negative) (ATCC). The noncancerous cell line and normal cells were 3T3 (Mouse embryo fibroblast) (ATCC), MCF10A (human nontumorigenic breast cell line) (ATCC) and PBMC (human peripheral blood mononuclear cells). PBMCs were obtained from one of the authors herself. Blood (10–12 mL) was taken from the donor by using the 25 mL syringe. The blood sample was diluted with same volume of PBS. The diluted blood sample was carefully layered on Ficoll-Paque Plus (Amersham Biosciences, USA) the ratio of 2 : 1. The mixture was centrifuged at 1500× g for 40 minutes at 18–20°C. The undisturbed lymphocyte layer was carefully transferred into centrifuge tube. The lymphocyte was washed and spun down three times by adding 10 mL sterile PBS and to get the pellet and resuspended in RPMI 1640 (Sigma, USA) with 100 IU/mL of penicillin, 100 μg/mL of streptomycin (Flowlab, Australia), and 10% v/v Fetal Bovine Serum (FBS) (PAA, Austria). Cell counting was performed to determine the PBMC number in equal volume of trypan blue.
# The colorimetric assay was performed on the isolated compounds using a modified microculture tetrazolium salt (MTT) assay (Sigma, USA). Varying concentrations of 0.46, 0.93, 1.87, 3.75, 7.5, 15, and 30 μg/mL of pyranocycloartobiloxanthone A (1), dihydroartoindonesianin C (2), and pyranocycloartobiloxanthone B (3) were prepared from the substock solutions by serial dilution in RPMI 1640 to give a volume of 100 μL in each microtitre plate well (96-flat bottom microwell plates). Each well was then added with 100 μL of cell lines in complete growth media (RPMI 1640) 5 × 10^5 cells/mL. […] After incubation, the fractions of surviving cells were determined relative to the untreated cell population using the colorimetric MTT assay. In this method, the viabilities of the cells were determined by measuring the amount of blue formazan crystals formed after 20 mL of freshly prepared MTT solution (5 mg in 1 mL PBS) was added to each well followed by four hours of incubation at 37°C. […] Finally, the absorbance (OD) of each well at 570 nm of wavelength was read using the microplate reader (ELISA reader, EL340 Biokinetic Reader, Bio-Tek Instrumentation). […] The percentage of cell viability was determined as follows: […]
# [2] = test system: PBMC (human peripheral blood mononuclear cells); assay: MTT cytotoxicity assay, PBMC; format: cell-based; conditions: PBMC (normal), 72 hours continuous exposure
# Description: as §1, with “The lymphocyte was washed and spun down three times by adding 10 mL sterile PBS and to get the pellet and resuspended in RPMI 1640 (Sigma, USA) with 100 IU/mL of penicillin, 100 μg/mL of streptomycin (Flowlab, Australia), and 10% v/v Fetal Bovine Serum (FBS) (PAA, Austria). Cell counting was performed to determine the PBMC number in equal volume of trypan blue.” left out
# (§2) The colorimetric assay was performed on the isolated compounds using a modified microculture tetrazolium salt (MTT) assay (Sigma, USA). […] After incubation, the fractions of surviving cells were determined relative to the untreated cell population using the colorimetric MTT assay. In this method, the viabilities of the cells were determined by measuring the amount of blue formazan crystals formed after 20 mL of freshly prepared MTT solution (5 mg in 1 mL PBS) was added to each well followed by four hours of incubation at 37°C. […] Finally, the absorbance (OD) of each well at 570 nm of wavelength was read using the microplate reader (ELISA reader, EL340 Biokinetic Reader, Bio-Tek Instrumentation). […] The percentage of cell viability was determined as follows: […]
# [3] = test system: HL60 (human promyelocytic leukemia) cells; assay: MTT cytotoxicity assay, HL60; format: cell-based; conditions: HL-60, 72 h, 72 hours continuous exposure
# Description: as §1, with “The lymphocyte was washed and spun down three times by adding 10 mL sterile PBS and to get the pellet and resuspended in RPMI 1640 (Sigma, USA) with 100 IU/mL of penicillin, 100 μg/mL of streptomycin (Flowlab, Australia), and 10% v/v Fetal Bovine Serum (FBS) (PAA, Austria). Cell counting was performed to determine the PBMC number in equal volume of trypan blue.” left out
# as §2
# [4] = test system: HT29 (human colon cancer) cells; assay: MTT cytotoxicity assay, HT29; format: cell-based; conditions: HT-29, 72 hours continuous exposure
# Description: (§3) The cancerous and noncancerous cell lines (suspension and anchorage-dependent cells) were obtained from the American Type Culture Collection (ATCC) and the RIKEN Cell Bank (RCB). The cancerous cell lines used were HL-60 (human acute promyelocytic leukemia) (RCB), K562 (human chronic myeloid leukemia) (ATCC), MCF7 (human estrogen receptor (ER+) positive breast cancer) (ATCC), HeLa (human cervical cancer) (ATCC), HepG2 (human hepatocarcinoma) (ATCC), HT29 (human colon cancer) (RCI), and MDA-MB 231 (human estrogen receptor (ER−) negative) (ATCC). […]
# as §2
# [5] = test system: 3T3 (mouse embryo fibroblast) cells; assay: MTT cytotoxicity assay, 3T3; format: cell-based; conditions: 3T3, MTT, 72 hours continuous exposure
# Description: as §3, §2
# MCF7 cells [6] = assay: Cell proliferation ELISA BrdU assay, MCF7; format: cell-based, human; conditions: MCF7, treated at IC50 concentration (5 μg/mL)
# Procedure: (§4) This assay was conducted to determine the antiproliferative effects of the tested compound. In this assay, three different concentrations of compound or test sample were prepared together with control. The concentration chosen were 1 μg/mL, the IC50 concentration, and 20 μg/mL. Two types of cells were selected: HL-60 (suspension) and MCF7 (adherent) cells, since they gave the most significant results for the cytotoxic activity. The procedures are according to the instruction manual from Roche. Each sample was assayed in triplicate, and control samples include a blank (no cells) and background (without BrdU). The cells were treated by pyranocycloartobiloxanthone A (1) for 24, 48, and 72 hours. The cells were cultured together with various dilutions of test substance (tested compound) in 96-well MP flat bottom in a final volume of 100 μL/well, and 10 μL BrdU label (diluted by 1/2000 in media) was added to each well and incubated for 24 hour at 37°C. BrdU label was then replaced with 200 μL of fix/denaturing solution for 30 min at room temperature (25°C) and removed by inverting the plate. The anti-BrdU-POD working solution (100 μL/well) (diluted by 1/100 in dilution buffer) was added and incubated for one hour at room temperature. The cells were washed three times with wash buffer and once with dH2O. Then, removed dH2O and 100 μL of substrate solution was added to each well and incubated for 15 min at room temperature in the dark. The stop solution (100 μL/well) was added, and the absorbance was measured using ELISA reader at 450 nm, (reference wavelength 690). The activity was observed by the optical density (OD) of the absorbance at 450 nm, and graphs were plotted from the optical density obtained against time of exposure for each cell lines.
# [7] = test system: HeLa (human cervical cancer) cells; assay: MTT cytotoxicity assay, HeLa; format: cell-based; conditions: 72 hours continuous exposure
# Description: as §3, §2
# HL60 cells [8] = assay: Acridine orange / propidium iodide staining, HL60; format: cell-based, human; conditions: HL60, 2 μg/mL (IC50), 72 hours
# Procedure: (§5) Cell suspensions were mixed with an equal volume of staining solution (1 : 1) containing 10 μg/mL acridine orange and 10 μg/mL propium iodide (dissolved in PBS) and observed under fluorescence microscope within 30 minutes. The viable (green intact cells), apoptotic (green shrinking cells with condensed of fragmented nucleus), and necrotic (red cells) were the morphological changes that were examined under fluorescence microscope.
# [9] = test system: MCF10A (human nontumorigenic breast cell line); assay: MTT cytotoxicity assay, MCF10A; format: cell-based; conditions: MCF10A (normal), 72 hours continuous exposure
# Description: as §3, §2
# HL60 cells [10] = assay: Cell proliferation ELISA BrdU assay, HL60; format: cell-based, human; conditions: HL60, treated at IC50 concentration (2 μg/mL)
# Procedure: as §4
# MCF7 cells [11] = assay: Acridine orange / propidium iodide staining, MCF7; format: cell-based, human; conditions: MCF7, 5 μg/mL (IC50), 72 hours
# Procedure: as §5
# [12] = test system: MDA-MB 231 (human estrogen receptor (ER-) negative) cells; assay: MTT cytotoxicity assay, MDA-MB 231; format: cell-based; conditions: MDA-MB 231, MTT, 72 hours continuous exposure
# Description: as §3, §2
# [13] = test system: HepG2 (human hepatocarcinoma) cells; assay: MTT cytotoxicity assay, HepG2; format: cell-based; conditions: 72 hours continuous exposure
# Description: as §3, §2
# [14] = test system: K562 (human chronic myeloid leukemia) cells; assay: MTT cytotoxicity assay, K562; format: cell-based; conditions: K562, 72 h, 72 hours continuous exposure
# Description: as §3, §2
structure (smiles),measurement,setting,value
"COc1cccc2c1C(=O)c1c(O)c3c(c(O)c1C2=O)C[C@@](O)(C(=O)CO)C[C@@H]3O[C@H]1C[C@H](N)[C@H](O)[C@H](C)O1 [Doxorubicin, reference compound]",IC50,[1],0.2 ± 0.06 µg/mL
same,IC50,"[2]; Homo sapiens, read-out: IC50",> 30 µg/mL
same,IC50,[3],0.2 ± 0.03 µg/mL
"CC1C(O)Oc2c(O)cc(O)c3c2C1Cc1c-3oc2c3c(cc(O)c2c1=O)OC(C)(C)C=C3 (stereo not drawn) [compound 1, pyranocycloartobiloxanthone A]",IC50,[4],14 ± 1.5 µg/mL
same,IC50,[1],5 ± 1.2 µg/mL
same,IC50,[5],7 ± 1.6 µg/mL
same,"OD value (BrdU ELISA, 450 nm)","MCF7 cells [6]; 24 hours, untreated 1.44",0.89
same,"OD value (BrdU ELISA, 450 nm)","MCF7 cells [6]; 48 hours, untreated 2.08",0.75
same,"OD value (BrdU ELISA, 450 nm)","MCF7 cells [6]; 72 hours, untreated 2.88",0.66
same,IC50,[7],8 ± 3.3 µg/mL
same,IC50,"[2]; Homo sapiens, read-out: IC50",> 30 µg/mL
same,IC50,[2],not toxic
same,mode of cell death (AO/PI morphology),HL60 cells [8],kill both cells in apoptotic manner
same,IC50,"[9]; Homo sapiens, MCF-10A, read-out: IC50",> 30 µg/mL
same,IC50,[9],not toxic
same,"OD value (BrdU ELISA, 450 nm)","HL60 cells [10]; 24 hours, untreated 1.34",0.8
same,"OD value (BrdU ELISA, 450 nm)","HL60 cells [10]; 48 hours, untreated 1.26",0.78
same,"OD value (BrdU ELISA, 450 nm)","HL60 cells [10]; 72 hours, untreated 1.65",0.66
same,mode of cell death (AO/PI morphology),MCF7 cells [11],kill both cells in apoptotic manner
same,IC50,[12],12 ± 1.1 µg/mL
same,IC50,[13],20 ± 2 µg/mL
"CC1Oc2c(O)cc(O)c3c2C(Cc2c-3oc3c4c(cc(O)c3c2=O)OC(C)(C)C=C4)C1O (stereo not drawn) [compound 3, pyranocycloartobiloxanthone B]",IC50,[1],23 ± 1.3 µg/mL
same,IC50,[14],> 30 µg/mL
same,IC50,[3],17 ± 0.8 µg/mL
"C=C(C)c1cc2c(=O)c3c(O)cc4c(c3oc2c2c1C(C)(O)CC2=O)C=CC(C)(C)O4 (stereo not drawn) [compound 2, dihydroartoindonesianin C]",IC50,[1],27 ± 1.9 µg/mL
same,IC50,[14],> 30 µg/mL
same,IC50,[3],26 ± 0.8 µg/mL
